Data from the supplement of paper PMC7214452.
Counter-ions that a name gives are not always drawn.

What was measured:
Experiment in all cases: normalized area under the dose-response curve (viability relative to DMSO control) (fraction); higher = less sensitive (more viable cells)
Details in all cases: exposure time not given
[1] = system: KMS34 (cancer type: MM)
Method: (§1)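 25 myeloma and 15 non-Hodgkin lymphoma cell lines were exposed to each of 76 drugs as 7-point log dilutions (0.01 nM–10 µM) in duplicate. Viability was read with CellTiter-Glo and normalised to DMSO (0.1%) and staurosporine (10 µM) plate controls. Normalised AUC was calculated by the trapezoidal method relative to the negative control.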

[2] = system: KMS28PE (cancer type: MM)
Method: as §1

[3] = system: U266 (cancer type: MM)
Method: as §1

[4] = system: OPM2 (cancer type: MM)
Method: as §1

[5] = system: FR4 (cancer type: MM)
Method: as §1

[6] = system: SR-786 (cancer type: TCL)
Method: as §1

[7] = system: MM1.S (cancer type: MM)
Method: as §1

[8] = system: SKMM2 (cancer type: MM)
Method: as §1

[9] = system: Se-Ax (cancer type: TCL)
Method: as §1

[10] = system: My-La (cancer type: TCL)
Method: as §1

[11] = system: Granta-519 (cancer type: Mantle)
Method: as §1

[12] = system: JJN3 (cancer type: MM)
Method: as §1

[13] = system: OCI-LY19 (cancer type: DLBCL)
Method: as §1

[14] = system: XG2 (cancer type: MM)
Method: as §1

[15] = system: OCI-MY5/CRBN (cancer type: MM)
Method: as §1

[16] = system: OCI-MY5 (cancer type: MM)
Method: as §1

[17] = system: KMS12PE (cancer type: MM)
Method: as §1

[18] = system: KMS18 (cancer type: MM)
Method: as §1

[19] = system: SU-DHL1 (cancer type: TCL)
Method: as §1

[20] = system: OCI-MY7 (cancer type: MM)
Method: as §1

[21] = system: JeKo-1 (cancer type: Mantle)
Method: as §1

[22] = system: KMS26 (cancer type: MM)
Method: as §1

[23] = system: SU-DHL6 (cancer type: DLBCL)
Method: as §1

[24] = system: MM1.R (cancer type: MM)
Method: as §1

[25] = system: AMO1 (cancer type: MM)
Method: as §1

[26] = system: NCI-H929 (cancer type: MM)
Method: as §1

[27] = system: Mino (cancer type: Mantle)
Method: as §1

[28] = system: Karpas-299 (cancer type: TCL)
Method: as §1

[29] = system: OCI-MY5/Vec (cancer type: MM)
Method: as §1

[30] = system: OCI-LY1 (cancer type: DLBCL)
Method: as §1

[31] = system: KMS11 (cancer type: MM)
Method: as §1

[32] = system: OCI-LY3 (cancer type: DLBCL)
Method: as §1

[33] = system: EJM (cancer type: MM)
Method: as §1

[34] = system: JVM2 (cancer type: Mantle)
Method: as §1

[35] = system: RPMI 8226 (cancer type: MM)
Method: as §1

[36] = system: HuT 78 (cancer type: TCL)
Method: as §1

[37] = system: KMS28BM (cancer type: MM)
Method: as §1

[38] = system: LP1 (cancer type: MM)
Method: as §1

[39] = system: SU-DHL2 (cancer type: DLBCL)
Method: as §1

[40] = system: L363 (cancer type: MM)
Method: as §1

Structure (SMILES)	normalized area under the dose-response curve [1]	normalized area under the dose-response curve [2]	normalized area under the dose-response curve [3]	normalized area under the dose-response curve [4]	normalized area under the dose-response curve [5]	normalized area under the dose-response curve [6]	normalized area under the dose-response curve [7]	normalized area under the dose-response curve [8]	normalized area under the dose-response curve [9]	normalized area under the dose-response curve [10]	normalized area under the dose-response curve [11]	normalized area under the dose-response curve [12]	normalized area under the dose-response curve [13]	normalized area under the dose-response curve [14]	normalized area under the dose-response curve [15]	normalized area under the dose-response curve [16]	normalized area under the dose-response curve [17]	normalized area under the dose-response curve [18]	normalized area under the dose-response curve [19]	normalized area under the dose-response curve [20]	normalized area under the dose-response curve [21]	normalized area under the dose-response curve [22]	normalized area under the dose-response curve [23]	normalized area under the dose-response curve [24]	normalized area under the dose-response curve [25]	normalized area under the dose-response curve [26]	normalized area under the dose-response curve [27]	normalized area under the dose-response curve [28]	normalized area under the dose-response curve [29]	normalized area under the dose-response curve [30]	normalized area under the dose-response curve [31]	normalized area under the dose-response curve [32]	normalized area under the dose-response curve [33]	normalized area under the dose-response curve [34]	normalized area under the dose-response curve [35]	normalized area under the dose-response curve [36]	normalized area under the dose-response curve [37]	normalized area under the dose-response curve [38]	normalized area under the dose-response curve [39]	normalized area under the dose-response curve [40]
Cc1ccc(F)c(NC(=O)Nc2ccc(-c3cccc4[nH]nc(N)c34)cc2)c1 [Linifanib]	0.33	0.722	0.549	0.587	0.441	0.721	0.55	0.667	0.627	0.852	0.861	0.603	0.987	0.547	0.55	0.468	0.73	0.56	0.519	0.5	0.759	0.709	0.955	0.58	0.567	0.59	0.735	0.651	0.57	0.995	0.65	0.983	0.526	0.25	0.165	0.63	0.646	0.348	0.981	0.605
N[C@@H](Cc1ccc(N(CCCl)CCCl)cc1)C(=O)O [Melphalan hydrochloride]	0.573	0.758	0.885	0.896	0.919	0.973	0.79	0.892	0.778	0.892	0.798	0.874	1.01	0.776	0.926	0.643	0.86	0.842	0.41	0.73	0.788	0.791	0.905	0.8	0.722	0.77	0.818	0.907	0.936	0.94	0.826	0.858	0.685	0.742	0.897	0.787	0.95	0.85	0.936	0.73
